Results on one molecule are retold here after patent publication US20260345635A1, “SPRAY DRIED TREPROSTINIL FORMULATION” (Insmed Incorporated, priority 2023, published 2026).

Series [1] can be described thus: Aerosol performance of TPIP by NGI with four RS01 devices of different resistance. Type of series: physicochemical. How it is done:
FIGS. 8A-8C are graphs showing TP Fine Particle Fraction (FPF) (FIG. 8A); Fine Particle Dose (FPD) as a Function of Device Resistance for the 8 mg (blue), 16 mg (orange), and 32 mg (gray) Capsule Dose (FIG. 8B); and TP FPD as a Function of Capsule Dose for Each Device (FIG. 8C). Trend lines are only shown for the UHR and HR DPIs in FIG. 8C. The ultra-high resistance (UHR), the high resistance (HR), the medium resistance (MR) and the low resistance (LR) devices were tested at 40, 60, 85 and 100 LPM, respectively.
The aerosolized composition is administered to a patient in need of treatment of PH, e.g., PAH or PH associated with interstitial lung disease (PH-ILD). In one embodiment, the aerosolized composition is administered to a patient in need of treatment of pulmonary fibrosis (e.g., PH-ILD where the ILD is pulmonary fibrosis). The aerosolized composition can be characterized by certain parameters known to those of skill in the art, such as fine particle fraction (FPF), fine particle dose (FPD), emitted dose (ED), mass median aerodynamic diameter (MMAD) and/or particle size and distribution. In embodiments, these parameters are measured by NGI. In embodiments, the NGI uses a flow rate corresponding to a 3 kPa to 4.5 kPa air pressure drop relative the resistance of the DPI. In embodiments, the pressure drop is 4 kPa. For example, the performance of an ultra high resistance (UHR), high resistance (HR) and medium resistance (MR) devices may be evaluated by drawing 4 L of air through the DPI at a flow rate of 40, 60 and 85 LPM, respectively, corresponding to the 4 kPa air pressure drop. Aerosol characterization data for the above-noted parameters can be compared across different DPI devices (with different resistances). In embodiments, the mean inhaler resistance of a high resistance DPI used to achieve the parameters described herein ranges from 0.025 to 0.040 kPA^1/2 (L/min^−1)^−1. In embodiments, the mean inhaler resistance of a high resistance DPI used to achieve the parameters described herein ranges from 0.030 to 0.040 kPA^1/2 (L/min^−1)^−1. In embodiments, the mean inhaler resistance of a high resistance DPI used to achieve the parameters described herein ranges from about 0.034 to about 0.036 kPA^1/2 (L/min^−1)^−1.
Four Plastiape RS01 Model 7 DPIs (Plastiape S. p.A., Osnago, Italy) differ with respect to their device resistance: Ultra-high Resistance (UHR, code 239700005AA), High Resistance (HR, code 239700002AA), Medium Resistance (MR, code 239700006AA) and Low Resistance (LR, code 239700001AB). The pressure drop across each device containing an empty capsule was measured as a function of flow rate between 30 and 120 L/min (LPM). The present disclosure teaches that the high resistance DPI device is selected for evaluation and use. A peak inspiratory flow rate of 80 LPM, 60 LPM, 40 LPM, or 30 LPM corresponds to a pressure drop of 5.4 kPa, 4 kPa, 1.4 kPa, or 0.89 kPa, respectively, for the high resistance DPI.
In this Example, Applicant investigated the aerosol performance of TPIP in response to changes in capsule fill, device resistance, and inspiratory flow rate to enable selection of an inhaler for clinical use. Capsules containing 8, 16 or 32 mg of TPIP (80, 160, or 320 μg TP, respectively) were evaluated using four breath-actuated RS01 devices with low, medium, high or ultra-high inspiratory resistances, creating 12 different capsule and device configurations for evaluation.
The TP aerosol particle size distribution profiles for the UHR, HR, MR, and LR DPI devices are shown in FIGS. 7A-7C for the 8, 16 and 32 mg TPIP capsules, respectively. The TP aerosol particle size distribution profiles are polydisperse for the LR, MR and HR devices with the UHR device showing a trend towards a less polydisperse profile. The values for the total mass recoveries, emitted dose, MMAD, GSD, FPF, and FPD for the UHR, HR, MR, and LR devices loaded with 8, 16 and 32 mg TPIP capsules are shown in Table 5.

Series [2] in a line: In vitro aerosol performance of TPIP from HR RS01 DPI by Next Generation Impactor with breath simulator. Type of series: physicochemical. The settings on record: 30 LPM; for FPD (<5 μm), TP: 16 mg capsule. How it is done:
All the experiments in the following examples of present disclosure were performed with the RS01 Model 7 Plastiape (Plastiape S.p.A., Osnago, Italy) high resistance (HR) (code 239700002AA) DPI device for evaluation. The following examples relate to in vitro aerosol performance of the capsules containing 16 and 32 mg TPIP utilizing the HR RS01 Plastiape device in response to more clinically relevant inhalation profiles deviating from the rectangular wave profile. The aerosol performance were evaluated at different inhalation volumes of 4 L, 2 L or 1 L and at a different peak inspiratory flow rate of 60 LPM corresponding to a pressure drop of 4 kPa or 30 LPM corresponding to a pressure drop of 0.89 kPa across the device to reflect a diverse set of user scenarios.
An RS01 Model 7 Plastiape (Plastiape S.p.A., Osnago, Italy) high resistance (HR) (code 239700002AA) DPI device was used for evaluation. The pressure drop across the HR device containing an empty capsule was measured as a function of flow rate between 30 to 100 L/min (LPM).
To evaluate the differences in aerosol performance in response to different breathing profiles, TPIP aerosol emitted from the HR Plastiape device was delivered to the NGI (MSP Corp., Shoreview, MN) at ambient temperatures and low humidity (<45% RH) under various scenarios generated by the breathing simulator (BRS 3100, Copley), as presented in FIG. 1. A mixing inlet (Copley) was attached in between the pre-separator and the induction port to allow a constant flow rate of 30 or 60 LPM to be achieved through the NGI, while varying the change in inhalation profiles from the HR Plastiape device via BRS system. The outlet port of the NGI was connected to a vacuum pump drawing 30 or 60 LPM airflow (X) via a critical flow controller (TPK 2100, Copley), and an airflow of 30 or 60 LPM (Y) was drawn into the mixing inlet to ensure that initially no airflow (X-Y=0) was drawn through the inhaler. Aerosolization of the powder into the NGI was triggered by the BRS system via a diversion valve that redirects the airflow (Y) into the BRS system. For example, if 30 LPM airflow of Y is redirected to the BRS system, this would cause 30 LPM airflow to be drawn through the inhaler and into the mixing inlet. Therefore, the simulated inhalation profile generated by the BRS system is identical to the inhalation profile through the inhaler.
The BRS software was manually programmed through a Word Pad script to simulate inhalation acceleration rates of 20, 5.88, 2, 1, and 0.5 L/sec^2 corresponding to 50, 170, 500, 1000, and 2000 millisecond (ms) ramp times for a total inhaled volume of 4 L, and for 2 and 1 L inhalation volumes at both extreme acceleration rates to achieve the 60 LPM flow rate. Additionally, the breathing profile scripts for the 1, 2, and 4 L inhalation volumes at 20 and 0.5 L/s^2 (corresponding to 50 and 2000 ms ramp times) to reach the 30 LPM flow rate are included. A trapezoidal waveform was used to maintain the 4 L total inhalation volume as well as to keep the maximum inhalation flow rate at 60 LPM corresponding to the 4 kPa pressure drop across the device (FIG. 2A). Additionally, the breathing profiles with reduced inhalation volumes of 1 and 2 L were evaluated at the two extreme acceleration rates of 20 and 0.5 L/s^2 (corresponding to 50 and 2000 ms ramp times) for the 60 LPM inspiratory flow rate (FIG. 2B), and 25 and 1000 ms ramp times for the 30 LPM inspiratory flow rate (FIG. 2C).
The aerosol performance of each inhalation profile was characterized for TP with respect to its emitted dose (ED), mass median aerodynamic diameter (MMAD), geometric standard deviation (GSD), fine particle fraction<5 μm (FPF) and fine particle dose<5 μm (FPD) as described below. The total recovery of TP was also measured to provide assurance that each experiment was conducted acceptably. […]

Setting [3] is: 16 mg capsule, all four devices.
Where [4] appears, read: 32 mg capsule, LR device, 100 LPM.
Where [5] appears, read: 32 mg capsule, MR device (printed MA), 85 LPM.

Regarding `CCCCCCCCCCCCCCCCOC(=O)COc1cccc2c1C[C@H]1C[C@@H](O)[C@H](CC[C@@H](O)CCCCC)[C@H]1C2` [TP, treprostinil palmitil], the FPD was in the range of 98 to 104 µg in series [1] (setting [3]); 197 to 200 µg in series [1] (32 mg capsule, UHR and HR devices). Moreover, the FPF was 71-81% in series [1] (setting [3]) and 58-76% in series [1] (32 mg capsule, all four devices). Besides, the “FPD (<5 μm), TP” value in series [1] (setting [4]) is 155 µg; in series [1] (setting [5]) it was 168 µg; in series [2] (25 ms ramp, 1 L), 93 µg; in series [2] (25 ms ramp, 4 L), 92 µg; in series [2] (1000 ms ramp, 1 L), 87 µg; in series [2] (1000 ms ramp, 4 L) it was 90 µg. The “FPF (<5 μm)” value in series [1] (setting [4]) amounted to 58%; in series [1] (setting [5]), 62%. In series [2] (16 mg capsule, 1, 2, 4 L, 25 ms ramp), the ED is reported as 76%. Further, the emitted doses in series [2] (16 mg capsule, 1, 2, 4 L, 1000 ms ramp) was 72-75%.
